Data reported in US10590143B2, “Herbicidally active (alkynyl-phenyl)-substituted cyclic dione compounds and derivatives thereof” (Syngenta Limited, priority 2013, dated 2020).
Read-outs that look alike come from different tables or passages of the source.

Tests used:
Experiment in all cases: Biological Example 1 glasshouse assay for herbicidal activity
Type in all cases: in vivo
[1] = test system: Echinochloa crus-galli (ECHCG); conditions: Echinochloa crus-galli, 312 h, 13 days after application, read-out: percentage phytotoxicity ECHCG
Procedure: (§1) Seeds of a variety of test plant species were sown in standard soil** in pots. After cultivation for one day (pre-emergence) or after 8 days cultivation (post-emergence) under controlled conditions in a glasshouse (at 24/16° C., day/night; 14 hours light; 65% humidity), the plants were sprayed with an aqueous spray solution derived from the formulation of the technical active ingredient (the test herbicide) in acetone/water (50:50) solution containing 0.5% Tween 20 (polyoxyethylene sorbitan monolaurate, CAS Reg. No. 9005-64-5). The test plants were then grown on under controlled conditions in a glasshouse (at 24/16° C., day/night; 14 hours light; 65% humidity) and watered twice daily. 13 Days after application of the test herbicide, for pre- and post-emergence, the test was evaluated visually for percentage phytotoxicity to each plant (where 100%=total damage to plant; 0%=no damage to plant). Generally, each test herbicide is only tested on 1 plant per plant species for each application rate tested and for each application timing. **The “standard soil” in Biological Example 1 is usually a “sand” or “sandy loam” type of soil.
(§2) Dicotyledonous weeds: ABUTH=Abutilon theophrasti; AMARE=Amaranthus retroflexus. Grassy monocotyledonous weeds: SETFA=Setaria faberi; ALOMY=Alopecurus myosuroides; ECHCG=Echinochloa crus-galli; ZEAMX=Zea mays (corn, maize, e.g. volunteer corn).

[2] = test system: Zea mays (ZEAMX, corn, maize, e.g. volunteer corn); conditions: Zea mays, 312 h, 13 days after application, read-out: percentage phytotoxicity ZEAMX
Procedure: as §1, §2

Setaria faberi (SETFA) = conditions: 312 h, 13 days after application, read-out: percentage phytotoxicity SETFA
Procedure: as §1, §2

[3] = test system: Alopecurus myosuroides (ALOMY); conditions: 312 h, 13 days after application, read-out: percentage phytotoxicity ALOMY
Procedure: as §1, §2

[4] = test system: Abutilon theophrasti (ABUTH); conditions: 312 h, 13 days after application, read-out: percentage phytotoxicity ABUTH
Procedure: as §1, §2

[5] = test system: Amaranthus retroflexus (AMARE); conditions: Amaranthus retroflexus, 312 h, 13 days after application, read-out: percentage phytotoxicity AMARE
Procedure: as §1, §2

Compound	pest or weed control at 30 g/ha ([1]; post-emergence, post-emergence) [%]	pest or weed control at 250 g/ha ([1]; post-emergence, post-emergence) [%]	pest or weed control at 30 g/ha ([1]; pre-emergence, pre-emergence) [%]	pest or weed control at 250 g/ha ([1]; pre-emergence, pre-emergence) [%]	pest or weed control at 30 g/ha ([2]; post-emergence, post-emergence) [%]	pest or weed control at 250 g/ha ([2]; post-emergence, post-emergence) [%]	pest or weed control at 30 g/ha ([2]; pre-emergence, pre-emergence) [%]	pest or weed control at 250 g/ha ([2]; pre-emergence, pre-emergence) [%]	pest or weed control at 30 g/ha (Setaria faberi (SETFA); post-emergence, post-emergence) [%]	pest or weed control at 250 g/ha (Setaria faberi (SETFA); post-emergence, post-emergence) [%]	pest or weed control at 30 g/ha (Setaria faberi (SETFA); pre-emergence, pre-emergence) [%]	pest or weed control at 250 g/ha (Setaria faberi (SETFA); pre-emergence, pre-emergence) [%]	pest or weed control at 30 g/ha ([3]; post-emergence) [%]	pest or weed control at 250 g/ha ([3]; post-emergence) [%]	pest or weed control at 30 g/ha ([3]; pre-emergence) [%]	pest or weed control at 250 g/ha ([3]; pre-emergence) [%]	pest or weed control at 30 g/ha ([4]; post-emergence, post-emergence) [%]	pest or weed control at 250 g/ha ([4]; post-emergence, post-emergence) [%]	pest or weed control at 30 g/ha ([4]; pre-emergence, pre-emergence) [%]	pest or weed control at 250 g/ha ([5]; post-emergence, post-emergence) [%]	also measured
CC#Cc1cc(F)c(C2C(=O)C3CCC(C3)C2=O)c(OCC)c1 (stereo not drawn) [Compound A4]	90	100	90	100	100	100	80	100	70	100	50	70	80	90	70	90	10	30	20	50	pest or weed control at 250 g/ha ([4]; pre-emergence, pre-emergence): 30%; pest or weed control at 30 g/ha ([5]; post-emergence, post-emergence): 20%; pest or weed control at 30 g/ha ([5]; pre-emergence, pre-emergence): 40%; pest or weed control at 250 g/ha ([5]; pre-emergence, pre-emergence): 50%
CC#Cc1cc(F)c(C2C(=O)C3CCC(C)(C2=O)C3(C)C)c(OCC(F)(F)F)c1 (stereo not drawn) [Compound A9]		10				20				20				10				0		0	
CC#Cc1cc(F)c(C2C(=O)C3CCC(C)(C2=O)C3(C)C)c(OCCOC)c1 (stereo not drawn) [Compound A10]		0				40				0				0				0		0	
C#Cc1cc(F)c(C2C(=O)C3CCC(C3)C2=O)c(OC)c1 (stereo not drawn) [Compound B1]	70	100	50	90	90	100	70	100	70	90	60	100	20	80	10	90	50	70	20	20	pest or weed control at 8 g/ha ([1]; post-emergence, post-emergence): 20%; pest or weed control at 8 g/ha ([1]; pre-emergence, pre-emergence): 50%; pest or weed control at 8 g/ha ([2]; post-emergence, post-emergence): 80%; pest or weed control at 8 g/ha ([2]; pre-emergence, pre-emergence): 0%; pest or weed control at 8 g/ha (Setaria faberi (SETFA); post-emergence, post-emergence): 70%; pest or weed control at 8 g/ha (Setaria faberi (SETFA); pre-emergence, pre-emergence): 40%; pest or weed control at 8 g/ha ([3]; post-emergence): 0%; pest or weed control at 8 g/ha ([3]; pre-emergence): 0%; pest or weed control at 8 g/ha ([4]; post-emergence, post-emergence): 50%; pest or weed control at 8 g/ha ([4]; pre-emergence, pre-emergence): 10%; pest or weed control at 250 g/ha ([4]; pre-emergence, pre-emergence): 0%; pest or weed control at 8 g/ha ([5]; post-emergence, post-emergence): 0%; pest or weed control at 30 g/ha ([5]; post-emergence, post-emergence): 0%; pest or weed control at 8 g/ha ([5]; pre-emergence, pre-emergence): 30%; pest or weed control at 30 g/ha ([5]; pre-emergence, pre-emergence): 50%; pest or weed control at 250 g/ha ([5]; pre-emergence, pre-emergence): 30%
CC#Cc1cc(F)c(C2=C(OC(=O)OCC)C3CCC(C3)C2=O)c(OC)c1 (stereo not drawn) [Compound P2]	100	100	80	100	100	100	90	100	90	100	50	90	90	90	80	100	30	80	20	40	pest or weed control at 8 g/ha ([1]; post-emergence, post-emergence): 90%; pest or weed control at 8 g/ha ([2]; post-emergence, post-emergence): 90%; pest or weed control at 8 g/ha (Setaria faberi (SETFA); post-emergence, post-emergence): 60%; pest or weed control at 8 g/ha ([3]; post-emergence): 70%; pest or weed control at 8 g/ha ([4]; post-emergence, post-emergence): 10%; pest or weed control at 250 g/ha ([4]; pre-emergence, pre-emergence): 60%; pest or weed control at 8 g/ha ([5]; post-emergence, post-emergence): 20%; pest or weed control at 30 g/ha ([5]; post-emergence, post-emergence): 20%; pest or weed control at 30 g/ha ([5]; pre-emergence, pre-emergence): 40%; pest or weed control at 250 g/ha ([5]; pre-emergence, pre-emergence): 70%
